Assay results published in patent US6242443A, “1,2,4-benzothiadiazine derivatives, their preparation and use” (Novo Nordisk AIS, priority 1996, dated 2001).

test system: rat aorta rings; experiment: Relaxation of rat aorta rings (phenylephrine-contracted); format: cell-based; conditions: rat thoracic aorta rings contracted with phenylephrine to 80% of maximum response, cumulative addition; read-out: EC50 (concentration required to evoke a 50% relaxation of the tissue)
Description: The activity of the compounds as potassium channel openers can also be measured as relaxation of rat aortas rings according to the following procedure:
A section of rat thoracic aorta between the aortic arch and the diaphragm was dissected out and mounted as ring preparations as described by Taylor P. D. et al, Brit J. Pharmacol, 111, 42-48 (1994).
After a 45 min. equilibration period under a tension of 2 g, the preparations were contracted to achieve 80% of the maximum response using the required concentration of phenylephrine. When the phenylephrine response reached a plateau, potential vasodilatory agents were added cumulatively to the bath in small volumes using half log molar increments at 2 min intervals. Relaxation was expressed at the percentage of the contracted tension. The potency of a compound was expressed as the concentration required to evoke a 50% relaxation of the tissue.

Compared with `CC(C)NC1=NS(=O)(=O)c2ccc(C(F)(F)F)cc2N1` [Example 50, 3-Isopropylamino-6-trifluoromethyl-4H-1,2,4-benzothiadiazine 1,1-dioxide], `CCNC1=NS(=O)(=O)c2cc(F)ccc2N1` [Example 101, 3-Ethylamino-7-fluoro-4H-1,2,4-benzothiadiazine 1,1-dioxide] is 2.7-fold higher in EC50: 5.2 µM for the first, 14.1 µM for the second. The first is the more potent here.

Going from `C[C@H](NC1=NS(=O)(=O)c2cc(I)ccc2N1)c1ccccc1` [Example 88, 7-Iodo-3-(S)-(1-phenylethyl)amino-4H-1,2,4-benzothiadiazine 1,1-dioxide] to `CCNC1=NS(=O)(=O)c2cc(Br)ccc2N1` [Example 94, 7-Bromo-3-ethylamino-4H-1,2,4-benzothiadiazine 1,1-dioxide], the EC50 falls from 32.7 µM to 4.8 µM (6.8-fold). The second is the more potent here.

test system: RIN 5F cells; experiment: 86Rb+ efflux from a β-cell line (increased Rb-efflux in RIN 5F cells); format: cell-based; conditions: 1 h at room temperature, pH 7.1
Description: ^86 Rb^+ efflux from a β-cell line
The RIN 5F cell line was grown in RPMI 1640 with Glutamax I, supplemented with 10% fetal calf serum (from GibcoBRL, Scotland, UK) and maintained in an atmosphere of 5% CO2 /95% air at 37° C. The cells were detached with a Trypsin-EDTA solution (from GibcoBRL, Scotland, UK), resuspended in medium, added 1 mCi/ml ^86 Rb^+ and replated into microtiter plates (96 well cluster 3596, sterile, from Costar Corporation,MA, USA) at a density of 50000 cells/well in 100 μl/well, and grown 24 hours before use in assay.
The plates were washed 4 times with Ringer buffer (150 mM NaCl, 10 mM Hepes, 3.0 mM KCl, 1.0 mM CaCl2, 20 mM Sucrose, pH 7.1). Eighty μl Ringer buffer and 1 μl control- or test compound dissolved in DMSO was added. After incubation 1 h at room temperature with a lid, 50 μl of the supernatant was transferred to PicoPlates (Packard Instrument Company, CT, USA) and 100 μl MicroScint40 (Packard Instrument Company, CT, USA) added. The plates were counted in TopCount (Packard Instrument Company, CT, USA) for 1 min/well at the ^32 P program.
The calculation of EC50 and Emax was done by SlideWrite (Advanced Graphics Software, Inc., CA, USA) using a four parameter logistic curve: y=(a-d)/(1+(x/c)^b)+d, where a=the activity estimated at concentration zero, b=a slope factor, c=the concentration at the middle of the curve and, d=the activity estimated at infinite concentration. EC50 =c and Emax =d, when the curve is turned of at infinite concentrations.

`CC(C)C(C)NC1=NS(=O)(=O)c2cc(Cl)c(Cl)cc2N1` (stereo not shown) [Example 26, 6,7-Dichloro-3-(1,2-dimethylpropyl)amino-4H-1,2,4-benzothiadiazine 1,1-dioxide] and `O=S1(=O)N=C(NCC2CCCCC2)Nc2ccc(Cl)cc21` [Example 66, 7-Chloro-3-(cyclohexylmethyl)amino-4H-1,2,4-benzothiadiazine 1,1-dioxide] are within 1.5-fold of each other in EC50: 12.9 µM for the first, 9.4 µM for the second.

Work on `O=S1(=O)N=C(NCc2ccccc2)Nc2ccc(I)cc21` [Example 86, 3-Benzylamino-7-iodo-4H-1,2,4-benzothiadiazine 1,1-dioxide] yielded an EC50 of 13 µM.
